Data from ChEMBL document CHEMBL1152590, “Computational modeling of novel inhibitors targeting the Akt pleckstrin homology domain” (Bioorg Med Chem, 2009).

tested on: Caco-2; assay: Permeability across human Caco-2 cells

Row | SMILES | logPapp
1 | CCCc1nc2c(C)cc(-c3nc4ccccc4n3C)cc2n1Cc1ccc(-c2ccccc2C(=O)O)cc1 | -4.82
2 | CCOC(=O)[C@H](CCc1ccccc1)N[C@@H](C)C(=O)N1CCC[C@H]1C(=O)O | -5.64
3 | CN/C(=N/CCSCc1nc[nH]c1C)NC#N [CIMETIDINE] | -5.89
4 | Clc1cccc(Cl)c1N=C1NCCN1 [CLONIDINE] | -4.59
5 | NCCc1ccc(O)c(O)c1 [DOPAMINE] | -5.03
6 | CNC[C@H](O)c1ccc(O)c(O)c1 [EPINEPHRINE] | -6.02
7 | CN1CCC[C@H]1c1cccnc1 [NICOTINE] | -4.71
8 | C=CCOc1ccccc1OCC(O)CNC(C)C (stereo unspecified) [OXPRENOLOL] | -4.68
9 | c1ccc(C2(N3CCCCC3)CCCCC2)cc1 [PHENCYCLIDINE] | -4.61
10 | CC(C)NCC(O)COc1cccc2[nH]ccc12 (stereo unspecified) [PINDOLOL] | -4.78
11 | CC(=O)[C@H]1CC[C@H]2[C@@H]3CCC4=CC(=O)CC[C@]4(C)[C@H]3CC[C@]12C [PROGESTERONE] | -4.37
12 | CNC(=C[N+](=O)[O-])NCCSCc1ccc(CN(C)C)o1 [RANITIDINE] | -6.31
13 | O=C(O)c1ccccc1O [SALICYLIC ACID] | -4.79
14 | O=C(O)c1cc(/N=N/c2ccc(S(=O)(=O)Nc3ccccn3)cc2)ccc1O [SULFASALAZINE] | -6.33
15 | Cn1c(=O)c2[nH]cnc2n(C)c1=O.O [THEOPHYLLINE] | -4.35
16 | CC(C)(C)NC[C@H](O)COc1nsnc1N1CCOCC1 [TIMOLOL] | -4.85
